Laboratory results from patent US20250270209A1 (INTERLINE THERAPEUTICS, INC., priority 2022, published 2025).

Tests used:
LRRK2 wild type enzyme = LRRK2 wild type enzyme (Homo sapiens, UniProt Q5S007); assay: Biochemical Assay: LRRK2 TR-FRET (LanthaScreen) kinase assay with LRRKtide substrate; conditions: LRRK2 Inhibition, Table 8
Description: 10 mM compound solution was prepared in DMSO. An 11-point, 3-fold dilution was performed, with highest concentration at 10 μM. A 10 mM compound DMSO solution was added to Labcyte LDV plate and the compound concentration of source plate was 10 mM. The 1st compound concentration of Inter plate(Labcyte 384 well PP plate) was 4.938×10^−1 mM which was prepared by transferring 1.5 μL of 10 mM compound from source plate to 28.9 μL DMSO. The 2nd compound concentration of Inter plate was 1.829×10^−2 mM which was prepared by transferring 60 nL of 10 mM compound from source plate to 32.7 μL DMSO. The 3rd compound concentration of Inter plate was 6.774×10^−4 mM which was prepared by transferring 2.5 nL of 10 mM compound from source plate to 36.9 μL DMSO. 100 nL of reference compound was dispensed in column 1 for low control wells and 100 nL of DMSO in column 24 for high control wells. Compounds were dispensed to column 2 to 23 of assay plate and backfilled with DMSO to a total volume of 100 nL.
A 2X LRRK2 enzyme solution (final concentration 3 nM) was prepared in assay buffer (Tris-HCl pH8.0:50 mM, MgCl2: 5 mM, EDTA: 1 mM, Brij-35:0.01%, 2 mM DTT). A 2× substrate solution was prepared: LRRK2 tide substrate (final concentration 400 nM) and ATP (final concentration 25 μM) in assay buffer. 5 μL 2× LRRK2 enzyme solution was dispensed to each well in assay plate by Multidrop. Assay plate was spun at 1,000 rpm for 1 min and incubated for 15 min at 23° C. 5 μL 2× ATP/LRRKtide solution was dispensed to each well in assay plate by Multidrop. Assay plate was spun at 1,000 rpm for 1 min and incubated for 120 min at 23° C.
(§1) A 2× detection solution was prepared: Tb-pERM (pLRRKtide) antibody (final concentration 0.25 nM) and EDTA (final concentration 10 mM) in TR-FRET dilution buffer. 10 μL 2× detection solution was dispensed to each well in assay plate to stop kinase reaction by Multidrop. Assay plate was spun at 1,000 rpm for 1 min and incubate for 30 min at 23° C. Assay plate was then read on Envision configured for LanthaScreen® TR-FRET. pS935 LRRK2 Cell Assay

[1] = target: T1, wild type LRRK2 overexpressed in recombinant HEK-293T cells (Homo sapiens, UniProt Q5S007); assay: pS935 LRRK2 Cell Assay (HTRF, phospho-LRRK2 Ser935); assay type: cell-based; conditions: LRRK2 Inhibition, Table 8, 2 hours compound incubation
T1 construct: host or cells: HEK293T (transient transfection with pCMV-LRRK2 WT plasmid)
Description: as §1
The following protocol describes an in-vitro method for measuring phosphorylation at Ser935 on wild type LRRK2 overexpressed in recombinant HEK-293T cells. The method is based on HTRF technology, which combines Fluorescence Resonance Energy Transfer (FRET) with Time-Resolved measurement (TR). Phospho-LRRK2 (Ser935) is detected in a sandwich assay format using two different specific antibodies, one labelled with Eu3+-Cryptate (donor) and the second with d2(acceptor).When the fluorophores are in close proximity, excitation of the donor with a light source (flash lamp) stimulates FRET to the acceptor, which in turn fluoresces at a specific wavelength (665 nm). The fluorescence emission at 615 nm from the donor is also measured to allow ratiometric reduction of data. The specific signal is proportional to phospho-LRRK2 (Ser935).
Plasmid transient transfection: DMEM medium, FBS, DPBS, Trans-IT, OPTI-MEM reagents were allowed to warm to room temperature. HEK293T cells were cultured in DMEM +10% FBS complete medium in T150 flasks till around 80% confluency before transfection. Then cells were washed with 10 mL PBS and detached with 3 mL 0.25% typinsin. 30×10E6 HEK293T cells were seeded in DMEM +10% FBS complete medium to a 15 cm dish.
DNA, TransIT-LT1, OPTI-MEM complex were prepared: […] OPTI-MEM was added to a 15 mL cone tube, then […] plasmid was added to OPTI-MEM and mixed, followed by addition of 60 μL TransIT-LT1 to the plasmid OPTI-MEM mixture and mixing. The resulting mixture was incubated for 15 minutes.
The above plasmid, DNA and OPTI-MEM mixture was added dropwise to the 15 cm dish, ensuring the drops were evenly distributed. The culture dish was gently rocked back and forth and from left to right to evenly distribute the complex. The tranfected dish was incubated for 24 hours at 37° C., and 5% CO2.
Transfected HEK293T was collected in the 15 cm dish. Media was aspirated from tissue culture dish, and washed by dispensing 10 mL 1× DPBS into 15 cm dish. 1× DPBS was aspirated and 3 mL trypsin was dispensed to 15 cm dish. The dish was incubated with trypsin at room temperature for 3 min until the cells were detached. 10 mL of DMEM +10% FBS medium were added to 15 cm dish and triturated to ensure homogenous cell suspensions.
Homogenous cell suspensions were transferred to a 50 mL tube, and centrifuged for 5 minutes at 1,000 rmp/min. The supernatant was aspirated and resuspended with 20 mL complete medium. 1 mL of cell suspension was transferred for cell counting. The cell suspension was diluted to 2× 10E5 cells/ml. 50 μL cell suspensions were added to a 384-well plate. The plate was quick spun at 800 rpm for 1 minute, then incubate overnight at 37° C., 5% CO2.
Compound dispensing: compound was diluted (10 mM DMSO stock solution) and added to assay plate (top concentration: 10 μM, 3 fold serial dilution, 9 doses) with duplicates by Tecan liquid handler. The DMSO concentration of each well was normalized to 0.2%. Plates were quick spun at 1,000 rpm for 1 minute. Plates were incubated at 37° C., 5% CO2 for 2 hours.
1× lysis buffer solution supplemented with blocking reagent was prepared (e.g. 1 mL lysis buffer 4X+3 mL water+40 μL stock blocking reagent 100X). Antibodies working solution was prepared by diluting 40-fold d2 and Cryptate antibodies with detection buffer(e.g. 1520 μL detection buffer+40 μL d2-antibody stock solution+[…] Cryptate-antibody stock solution).
After 2 hours incubation, cell plates were taken out from the incubator. […]

T1 sequence (Q5S007 whole entry): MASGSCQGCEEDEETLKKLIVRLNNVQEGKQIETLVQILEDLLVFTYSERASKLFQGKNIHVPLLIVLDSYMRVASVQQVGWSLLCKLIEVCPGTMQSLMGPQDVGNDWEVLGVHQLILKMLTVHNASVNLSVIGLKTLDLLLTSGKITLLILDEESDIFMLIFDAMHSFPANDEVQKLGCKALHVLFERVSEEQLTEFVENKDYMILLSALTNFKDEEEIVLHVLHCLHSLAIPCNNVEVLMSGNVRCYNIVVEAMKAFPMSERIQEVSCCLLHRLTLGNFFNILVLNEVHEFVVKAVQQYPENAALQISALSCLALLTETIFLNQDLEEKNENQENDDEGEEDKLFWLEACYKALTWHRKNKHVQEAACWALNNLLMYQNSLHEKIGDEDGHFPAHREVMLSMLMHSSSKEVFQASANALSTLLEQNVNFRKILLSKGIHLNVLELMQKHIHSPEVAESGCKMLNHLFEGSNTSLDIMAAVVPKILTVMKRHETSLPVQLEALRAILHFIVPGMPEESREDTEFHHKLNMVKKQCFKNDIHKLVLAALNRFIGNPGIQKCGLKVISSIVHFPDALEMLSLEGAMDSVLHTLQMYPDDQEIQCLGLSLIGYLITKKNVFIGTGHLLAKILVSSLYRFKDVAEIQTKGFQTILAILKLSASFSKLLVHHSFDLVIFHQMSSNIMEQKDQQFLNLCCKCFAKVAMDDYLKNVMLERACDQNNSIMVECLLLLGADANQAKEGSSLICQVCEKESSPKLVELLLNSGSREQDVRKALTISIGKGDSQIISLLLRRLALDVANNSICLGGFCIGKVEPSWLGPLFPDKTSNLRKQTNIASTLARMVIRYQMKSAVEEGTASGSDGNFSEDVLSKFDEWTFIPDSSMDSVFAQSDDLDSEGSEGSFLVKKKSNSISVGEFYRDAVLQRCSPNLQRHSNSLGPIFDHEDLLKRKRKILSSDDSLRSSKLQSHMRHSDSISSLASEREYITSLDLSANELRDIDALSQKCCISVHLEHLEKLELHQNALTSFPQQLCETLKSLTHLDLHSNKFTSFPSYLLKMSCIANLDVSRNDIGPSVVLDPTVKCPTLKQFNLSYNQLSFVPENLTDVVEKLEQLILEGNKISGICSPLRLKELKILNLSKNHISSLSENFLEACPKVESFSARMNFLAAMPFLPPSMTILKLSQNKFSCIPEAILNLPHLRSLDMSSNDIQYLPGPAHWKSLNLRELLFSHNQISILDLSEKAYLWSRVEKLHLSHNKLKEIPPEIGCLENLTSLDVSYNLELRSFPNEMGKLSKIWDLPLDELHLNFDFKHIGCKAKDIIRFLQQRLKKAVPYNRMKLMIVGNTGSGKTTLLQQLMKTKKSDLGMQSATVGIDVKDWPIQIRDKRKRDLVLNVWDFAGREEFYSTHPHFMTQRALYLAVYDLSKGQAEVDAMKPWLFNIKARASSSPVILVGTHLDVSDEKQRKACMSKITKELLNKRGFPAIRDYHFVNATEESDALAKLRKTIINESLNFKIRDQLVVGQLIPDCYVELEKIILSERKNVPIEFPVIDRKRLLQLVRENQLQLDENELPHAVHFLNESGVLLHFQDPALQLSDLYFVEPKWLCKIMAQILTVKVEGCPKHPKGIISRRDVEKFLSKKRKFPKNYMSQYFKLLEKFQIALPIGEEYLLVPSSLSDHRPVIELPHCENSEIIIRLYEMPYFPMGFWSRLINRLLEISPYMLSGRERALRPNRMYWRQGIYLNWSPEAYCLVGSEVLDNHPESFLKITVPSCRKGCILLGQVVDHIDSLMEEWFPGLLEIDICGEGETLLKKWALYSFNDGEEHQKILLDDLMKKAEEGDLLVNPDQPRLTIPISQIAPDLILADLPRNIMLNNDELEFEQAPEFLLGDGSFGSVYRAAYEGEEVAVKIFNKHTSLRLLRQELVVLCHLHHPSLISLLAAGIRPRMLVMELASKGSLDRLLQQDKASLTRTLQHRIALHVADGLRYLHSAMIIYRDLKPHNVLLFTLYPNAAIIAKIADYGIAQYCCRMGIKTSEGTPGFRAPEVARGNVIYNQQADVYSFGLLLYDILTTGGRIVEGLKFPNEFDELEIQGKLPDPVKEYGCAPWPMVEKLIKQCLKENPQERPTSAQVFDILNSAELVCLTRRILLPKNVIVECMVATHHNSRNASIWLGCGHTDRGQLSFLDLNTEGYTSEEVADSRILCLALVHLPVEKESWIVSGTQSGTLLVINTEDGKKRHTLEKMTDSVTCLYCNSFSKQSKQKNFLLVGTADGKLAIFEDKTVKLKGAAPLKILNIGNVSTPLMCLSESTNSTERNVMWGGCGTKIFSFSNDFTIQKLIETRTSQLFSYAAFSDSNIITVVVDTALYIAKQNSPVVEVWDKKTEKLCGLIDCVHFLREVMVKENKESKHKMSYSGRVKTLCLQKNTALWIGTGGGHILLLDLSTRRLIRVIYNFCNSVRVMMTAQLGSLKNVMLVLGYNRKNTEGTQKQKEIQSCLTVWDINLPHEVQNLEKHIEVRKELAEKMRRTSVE
Chain of LRRK2 wild type enzyme (Q5S007 whole entry): as above

Row | SMILES | IC50 (LRRK2 wild type enzyme) [nM] | IC50 [1] [nM]
1 | CN1CC(n2c(CC(=O)NCC3CC3)nc3cnc4ccc(C#N)cc4c32)CCC1=O (single isomer, unassigned) [Compound 90] | 1.42 | 799
2 | CN1CC(n2c(CC(=O)NCC3CC3)nc3cnc4ccc(C#N)cc4c32)CCC1=O (single isomer, unassigned) [Compound 91] | 40.4 | 6910
3 | CN1CC(n2c(C3CC(=O)N(CC4CC4)C3)nc3cnc4ccc(C#N)cc4c32)CCC1=O (single isomer, unassigned) [Compound 139] | 56 | 1600
4 | CN1CC(n2c(C3CC(=O)N(CC4CC4)C3)nc3cnc4ccc(C#N)cc4c32)CCC1=O (single isomer, unassigned) [Compound 140] | 42.1 | > 10000
5 | C[C@@H]1C[C@H](n2c(CC(=O)NC3CC3F)nc3cnc4ccc(C#N)cc4c32)CCO1 (stereo in doubt) [Compound 245, N-[(1R,2R)-2-fluorocyclopropyl]{3-[(2R,4R)-2-methyltetrahydro-2H-pyran-4-yl]-12-cyano-3,5,8-triazatricyclo[7.4.0.0^2,6]trideca-1(13),2(6),4,7,9,11-hexaen-4-yl}acetamide] | 0.947 | 71
6 | C[C@@H]1C[C@H](n2c([C@@H]3CN(CC4CC4)S(=O)(=O)C3)nc3cnc4ccc(C#N)cc4c32)CCO1 [Compound 1, 2-[(4S)-2-(cyclopropylmethyl)-1,1-dioxo-1X^6,2-thiazolidin-4-yl]-1-[(2R,4R)-2-methyloxan-4-yl]-1H-imidazo[4,5-c]quinoline-8-carbonitrile] | 2.45 | 168
7 | C[C@@H]1C[C@H](n2c([C@H]3CN(CC4CC4)S(=O)(=O)C3)nc3cnc4ccc(C#N)cc4c32)CCO1 [Compound 2, 2-[(4R)-2-(cyclopropylmethyl)-1,1-dioxo-1λ^6,2-thiazolidin-4-yl]-1-[(2R,4R)-2-methyloxan-4-yl]-1H-imidazo[4,5-c]quinoline-8-carbonitrile] | 0.662 | 39.2
8 | C[C@@H]1C[C@H](n2c(C3CC(=O)N(CC4CC4)C3)nc3cnc4ccc(Cl)cc4c32)CCO1 (stereo partly drawn) [Compound 3, 4-{8-chloro-1-[(2R,4R)-2-methyloxan-4-yl]-1H-imidazo[4,5-c]quinolin-2-yl}-1-(cyclopropylmethyl)pyrrolidin-2-one] | 1.21 | 88.7
9 | C[C@@H]1C[C@H](n2c(CC(=O)NC3CCOCC3)nc3cnc4ccc(C#N)cc4c32)CCO1 [Compound 4, 2-{8-cyano-1-[(2R,4R)-2-methyloxan-4-yl]-1H-imidazo[4,5-c]quinolin-2-yl}-N-(oxan-4-yl)acetamide] | 0.551 | 57.5
10 | C[C@@H]1C[C@H](n2c(CC(=O)NC3CC3)nc3cnc4ccc(C#N)cc4c32)CCO1 [Compound 5, 2-{8-cyano-1-[(2R,4R)-2-methyloxan-4-yl]-1H-imidazo[4,5-c]quinolin-2-yl}-N-cyclopropylacetamide] | 0.586 | 35.6
11 | CCNC(=O)Cc1nc2cnc3ccc(C#N)cc3c2n1[C@@H]1CCO[C@H](C)C1 [Compound 6, 2-{8-cyano-1-[(2R,4R)-2-methyloxan-4-yl]-1H-imidazo[4,5-c]quinolin-2-yl}-N-ethylacetamide] | 0.58 | 48.7
12 | C[C@@H]1C[C@H](n2c(CC(=O)N[C@H](C)C3CC3)nc3cnc4ccc(C#N)cc4c32)CCO1 [Compound 7, 2-{8-cyano-1-[(2R,4R)-2-methyloxan-4-yl]-1H-imidazo[4,5-c]quinolin-2-yl}-N-[(1R)-1-cyclopropylethyl]acetamide] | 0.794 | 47.2
13 | C[C@@H]1C[C@H](n2c(CC(=O)N[C@@H](C)C3CC3)nc3cnc4ccc(C#N)cc4c32)CCO1 [Compound 8, 2-{8-cyano-1-[(2R,4R)-2-methyloxan-4-yl]-1H-imidazo[4,5-c]quinolin-2-yl}-N-[(1S)-1-cyclopropylethyl]acetamide] | 1.49 | 118
14 | C[C@@H]1C[C@H](n2c(CC(=O)N(C)C)nc3cnc4ccc(C#N)cc4c32)CCO1 [Compound 9, 2-{8-cyano-1-[(2R,4R)-2-methyloxan-4-yl]-1H-imidazo[4,5-c]quinolin-2-yl}-N,N-dimethylacetamide] | 6.28 | 605
15 | C[C@@H]1C[C@H](n2c(CNC(=O)OC3CC3)nc3cnc4ccc(C#N)cc4c32)CCO1 [Compound 10, cyclopropyl N-({8-cyano-1-[(2R,4R)-2-methyloxan-4-yl]-1H-imidazo[4,5-c]quinolin-2-yl}methyl)carbamate] | 1.92 | 165
16 | C[C@@H]1C[C@H](n2c(CNc3ncco3)nc3cnc4ccc(C#N)cc4c32)CCO1 [Compound 11, 1-[(2R,4R)-2-methyloxan-4-yl]-2-{[(1,3-oxazol-2-yl)amino]methyl}-1H-imidazo[4,5-c]quinoline-8-carbonitrile] | 4.23 | 609
17 | C[C@@H]1C[C@H](n2c(CNc3nccn3C)nc3cnc4ccc(C#N)cc4c32)CCO1 [Compound 12, 2-{[(1-methyl-1H-imidazol-2-yl)amino]methyl}-1-[(2R,4R)-2-methyloxan-4-yl]-1H-imidazo[4,5-c]quinoline-8-carbonitrile] | 9.07 | > 10000
18 | Cc1ccc(CN2CC(c3nc4cnc5ccc(C#N)cc5c4n3[C@@H]3CCO[C@H](C)C3)CC2=O)cn1 (stereo partly drawn) [Compound 13, 1-[(2R,4R)-2-methyloxan-4-yl]-2-{1-[(6-methylpyridin-3-yl)methyl]-5-oxopyrrolidin-3-yl}-1H-imidazo[4,5-c]quinoline-8-carbonitrile] | 1.19 | 180
19 | CC(C)NC(=O)Cc1nc2cnc3ccc(C#N)cc3c2n1[C@@H]1CCO[C@H](C)C1 [Compound 14, 2-{8-cyano-1-[(2R,4R)-2-methyloxan-4-yl]-1H-imidazo[4,5-c]quinolin-2-yl}-N-(propan-2-yl)acetamide] | 7.01 | 43.7
